Measurements: patent US11051515B2, “3-acyl-benzamides and their use as herbicides” (Bayer Aktiengesellschaft, priority 2017, dated 2021)

Legend:
ALOMY = experiment: Pre-emergence action against ALOMY; format: in vivo, Alopecurus myosuroides; settings: dosage 320 g/ha, pre-emergence, scored visually after 3 weeks vs untreated controls, 100% = plants have died, 0% = like control plants
Outline: (§1)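 Seeds sown in sandy loam in wood-fiber pots and covered with soil. Greenhouse growth; visual damage scored after 3 weeks versus untreated controls (100% = dead, 0% = like control).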

DIGSA = experiment: Pre-emergence action against DIGSA; format: in vivo, Digitaria sanguinalis; settings: dosage 320 g/ha, scored visually after 3 weeks vs untreated controls
Excerpt: (§2) Seeds of monocotyledonous and dicotyledonous weed plants and crop plants are laid out in sandy loam soil in wood-fiber pots and covered with soil. The compounds of the invention, formulated in the form of wettable powders (WP) or as emulsion concentrates (EC), are then applied to the surface of the covering soil in the form of an aqueous suspension or emulsion at a water application rate equating to […], with addition of 0.2% wetting agent. After the treatment, the pots are placed in a greenhouse and kept under good growth conditions for the trial plants. The damage to the test plants is scored visually after a test period of 3 weeks by comparison with untreated controls (herbicidal activity in percent (%): 100% activity=the plants have died, 0% activity=like control plants).

ECHCG [1] = experiment: Pre-emergence action against ECHCG; format: in vivo, Echinochloa crus-galli; settings: pre-emergence, dosage 320 g/ha, scored visually after 3 weeks vs untreated controls
Outline: as §1

SETVI = experiment: Pre-emergence action against SETVI; format: in vivo, Setaria viridis; settings: pre-emergence, dosage 320 g/ha, scored visually after 3 weeks vs untreated controls
Outline: as §1

ABUTH [2] = experiment: Pre-emergence action against ABUTH; format: in vivo, Abutilon theophrasti; settings: pre-emergence, dosage 320 g/ha, scored visually after 3 weeks vs untreated controls
Outline: as §1

AMARE [3] = experiment: Pre-emergence action against AMARE; format: in vivo, Amaranthus retroflexus; settings: pre-emergence, dosage 320 g/ha, scored visually after 3 weeks vs untreated controls
Outline: as §1

MATIN [4] = experiment: Pre-emergence action against MATIN; format: in vivo, Matricaria inodora; settings: Dosage 320 g/ha, pre-emergence
Outline: as §1

PHBPU [5] = experiment: Pre-emergence action against PHBPU; format: in vivo, Pharbitis purpurea; settings: Dosage 320 g/ha, pre-emergence
Outline: as §1

POLCO [6] = experiment: Pre-emergence action against POLCO; format: in vivo, Polygonum convolvulus; settings: Fallopia convolvulus, 504 h; Dosage 320 g/ha, pre-emergence
Outline: as §1

STEME [7] = experiment: Pre-emergence action against STEME; format: in vivo, Stellaria media; settings: Dosage 320 g/ha, pre-emergence
Outline: as §1

VIOTR [8] = experiment: Pre-emergence action against VIOTR; format: in vivo, Viola tricolor; settings: Dosage 320 g/ha, pre-emergence
Outline: as §1

VERPE [9] = experiment: Pre-emergence action against VERPE; format: in vivo, Veronica persica; settings: Dosage 320 g/ha, pre-emergence
Outline: as §1

ABUTH [10] = experiment: Post-emergence action against ABUTH; format: in vivo, Abutilon theophrasti; settings: post-emergence, dosage 80 g/ha, visual assessment about 3 weeks after treatment vs untreated controls
Outline: (§3)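 Post-emergence foliar spray on greenhouse plants at the one-leaf stage, using wettable-powder or emulsion-concentrate formulations in water (600 to […], plus 0.2% wetting agent). Damage scored by eye roughly 3 weeks later against untreated plants: 0% = like control, 100% = dead.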

AMARE [11] = experiment: Post-emergence action against AMARE; format: in vivo, Amaranthus retroflexus; settings: post-emergence, dosage 80 g/ha, visual assessment about 3 weeks after treatment vs untreated controls
Outline: as §3

MATIN [12] = experiment: Post-emergence action against MATIN; format: in vivo, Matricaria inodora; settings: post-emergence, dosage 80 g/ha, visual assessment about 3 weeks after treatment vs untreated controls
Outline: as §3

PHBPU [13] = experiment: Post-emergence action against PHBPU; format: in vivo, Pharbitis purpurea; settings: post-emergence, dosage 80 g/ha
Outline: as §3

STEME [14] = experiment: Post-emergence action against STEME; format: in vivo, Stellaria media; settings: post-emergence, dosage 80 g/ha
Outline: as §3

VERPE [15] = experiment: Post-emergence action against VERPE; format: in vivo, Veronica persica; settings: dosage 80 g/ha
Outline: as §3

AVEFA [16] = experiment: Pre-emergence action against AVEFA; format: in vivo, Avena fatua; settings: dosage 320 g/ha, scored visually after 3 weeks vs untreated controls
Outline: as §1

LOLRI = experiment: Pre-emergence action against LOLRI; format: in vivo, Lolium rigidum; settings: dosage 320 g/ha, scored visually after 3 weeks vs untreated controls
Outline: as §1

AVEFA [17] = experiment: Post-emergence action against AVEFA; format: in vivo, Avena fatua; settings: post-emergence, dosage 80 g/ha, visual assessment about 3 weeks after treatment vs untreated controls
Outline: as §3

ECHCG [18] = experiment: Post-emergence action against ECHCG; format: in vivo, Echinochloa crus-galli; settings: post-emergence, dosage 80 g/ha, visual assessment about 3 weeks after treatment vs untreated controls
Outline: as §3

VIOTR [19] = experiment: Post-emergence action against VIOTR; format: in vivo, Viola tricolor; settings: post-emergence, dosage 80 g/ha
Outline: as §3

CYPES [20] = experiment: Pre-emergence action against CYPES; format: in vivo, Cyperus esculentus; settings: pre-emergence, dosage 320 g/ha, scored visually after 3 weeks vs untreated controls
Outline: as §1

LOLMU = experiment: Pre-emergence action against LOLMU; format: in vivo, Lolium multiflorum; settings: dosage 320 g/ha, scored visually after 3 weeks vs untreated controls
Excerpt: as §2

CYPES [21] = experiment: Post-emergence action against CYPES; format: in vivo, Cyperus esculentus; settings: post-emergence, dosage 80 g/ha, visual assessment about 3 weeks after treatment vs untreated controls
Outline: as §3

POLCO [22] = experiment: Post-emergence action against POLCO; format: in vivo, Polygonum convolvulus; settings: post-emergence, dosage 80 g/ha
Outline: as §3

SMILES	Pre-emergence action against DIGSA (herbicidal activity) (DIGSA) [%]	Pre-emergence action against AVEFA (herbicidal activity) (AVEFA [16]) [%]	Pre-emergence action against ECHCG (herbicidal activity) (ECHCG [1]) [%]	Pre-emergence action against ABUTH (herbicidal activity) (ABUTH [2]) [%]	Pre-emergence action against AMARE (herbicidal activity) (AMARE [3]) [%]	Pre-emergence action against MATIN (MATIN [4]) [%]	Pre-emergence action against STEME (STEME [7]) [%]	Pre-emergence action against VIOTR (VIOTR [8]) [%]	Pre-emergence action against VERPE (VERPE [9]) [%]	Post-emergence action against ABUTH (herbicidal action in percent) (ABUTH [10]) [%]	Post-emergence action against AMARE (herbicidal action in percent) (AMARE [11]) [%]	Post-emergence action against PHBPU (PHBPU [13])	Post-emergence action against STEME (STEME [14])	Post-emergence action against ECHCG (herbicidal action in percent) (ECHCG [18]) [%]	Post-emergence action against VIOTR (VIOTR [19])	SETVI (Table B8, pre-emergence herbicidal activity) (SETVI) [%]	Post-emergence action against MATIN (herbicidal action in percent) (MATIN [12]) [%]	other results
Cc1ccc(C(=O)Nc2nnnn2C)c(C)c1C(=O)C1CC1 [1-3]	90	–	–	–	–	–	–	–	–	–	–	–	–	–	–	–	–	pest or weed control at 320 g/ha (ALOMY; Alopecurus myosuroides, 504 h, read-out: Pre-emergence action against ALOMY (herbicidal activity in percent)): 90%; pest or weed control at 320 g/ha (ECHCG [1]; Echinochloa crus-galli, 504 h, read-out: Pre-emergence action against ECHCG (herbicidal activity)): 90%; pest or weed control at 320 g/ha (SETVI; Setaria viridis, 504 h, read-out: SETVI (Table B8, pre-emergence herbicidal activity)): 90%; pest or weed control at 320 g/ha (ABUTH [2]; Abutilon theophrasti, 504 h, read-out: Pre-emergence action against ABUTH (herbicidal activity)): 90%; pest or weed control at 320 g/ha (AMARE [3]; Amaranthus retroflexus, 504 h, read-out: Pre-emergence action against AMARE (herbicidal activity)): 100%; pest or weed control at 320 g/ha (MATIN [4]; Tripleurospermum inodorum, 504 h): 100%; pest or weed control at 320 g/ha (PHBPU [5]; Ipomoea purpurea, 504 h): 80%; pest or weed control at 320 g/ha (POLCO [6]): 80%; pest or weed control at 320 g/ha (STEME [7]; Stellaria media, 504 h): 90%; pest or weed control at 320 g/ha (VIOTR [8]; Viola tricolor, 504 h): 90%; pest or weed control at 320 g/ha (VERPE [9]; Veronica persica, 504 h): 90%; pest or weed control at 80 g/ha (ABUTH [10]; Abutilon theophrasti, 504 h, read-out: Post-emergence action against ABUTH (herbicidal action in percent)): 100%; pest or weed control at 80 g/ha (AMARE [11]; Amaranthus retroflexus, 504 h, read-out: Post-emergence action against AMARE (herbicidal action in percent)): 100%; pest or weed control at 80 g/ha (MATIN [12]; Tripleurospermum inodorum, 504 h, read-out: Post-emergence action against MATIN (herbicidal action in percent)): 90%; pest or weed control at 80 g/ha (PHBPU [13]; Ipomoea purpurea, 504 h): 90%; pest or weed control at 80 g/ha (STEME [14]; Stellaria media, 504 h): 90%; pest or weed control at 80 g/ha (VERPE [15]; Veronica persica, 504 h): 90%
CSc1c(C(=O)Nc2nnnn2C)ccc(C(F)(F)F)c1C(=O)C1CCCC1 [1-285]	90	80	80	100	100	100	100	100	90	90	90	80	80	–	–	–	–	Pre-emergence action against LOLRI (herbicidal activity) (LOLRI): 80%
CSc1c(C(=O)Nc2nnnn2C)ccc(C(F)(F)F)c1C(=O)C1CCCCC1 [1-286]	100	90	–	100	100	90	90	100	90	90	90	–	90	–	–	–	–	–
Cn1nnnc1NC(=O)c1ccc(C(F)(F)F)c(C(=O)c2cc(F)cc(F)c2)c1Cl [1-287]	80	–	80	100	100	–	–	100	100	80	90	90	–	90	90	–	–	Post-emergence action against AVEFA (herbicidal action in percent) (AVEFA [17]): 80%
CCn1nnnc1NC(=O)c1ccc(Cl)c(C(C)=O)c1Cl [2-114]	–	80	100	100	100	90	90	100	90	90	100	90	100	90	100	90	80	Pre-emergence action against ALOMY (herbicidal activity in percent) (ALOMY): 80%; Pre-emergence action against CYPES (herbicidal activity) (CYPES [20]): 90%; Pre-emergence action against LOLMU (herbicidal activity) (LOLMU): 80%; Post-emergence action against CYPES (herbicidal action in percent) (CYPES [21]): 90%; Post-emergence action against POLCO (POLCO [22]): 90; Post-emergence action against VERPE (VERPE [15]): 80
CCCn1nnnc1NC(=O)c1ccc(C(F)(F)F)c(C(=O)C(F)F)c1Cl [3-163]	100	–	–	100	100	100	90	100	–	80	100	90	100	80	80	100	90	Pre-emergence action against PHBPU (PHBPU [5]): 80%
